Drawing on ChEMBL document CHEMBL5625204, “Synthesis and pharmacodynamic evaluation of naphthalene derivatives against influenza A virus in vitro and in vivo” (Eur J Med Chem, 2023), this text covers CC50 and Activity for 25 compounds.

Calls of active or inactive are those of the source. No cut-off for these calls is given here.

Data set [1] can be described thus: Cytotoxicity against dog MDCK cells assessed as reduction in cell viability incubated for 72 hrs by MTT assay. It is filed as toxicity, cell-based, Canis lupus familiaris.
Data set [2] deals with Influenza A virus. Kind of data set: Antiviral activity against Influenza A virus H1N1 (A/Weiss/43) infected in MDCK cells assessed as reduction of viral replication at 0.625 to 100 uM incubated for 72 hrs by TCID50 method. It is filed as functional, organism-based. To be noted: dose 0.625-100 µM.

In the case of `Cc1ccc(S(=O)(=O)N(Cc2ccccc2)c2cc3ccccc3c3ccc(-c4ccccc4)cc23)cc1`, the CC50 at 72 h in data set [1] is greater than 800 µM. In addition, the result in data set [2] was inactive.

On to `Cc1ccc(S(=O)(=O)N(Cc2ccccc2)c2cc3ccccc3c3ccc(Cl)cc23)cc1`, for which the CC50 at 72 h in data set [1] was greater than 800 µM. For the same compound, the outcome in data set [2] was inactive.

With `Cc1ccc(S(=O)(=O)N(Cc2ccccc2)c2cc3ccccc3c3ccc(F)cc23)cc1`, the CC50 at 72 h in data set [1] turned out to be 1040 µM. In addition, the result in data set [2] was inactive.

Turning to `Cc1ccc(S(=O)(=O)Nc2cc3ccccc3c3ccc(-c4ccccc4)cc23)cc1`, in data set [1], the half-maximal cytotoxic concentration (CC50) at 72 h is greater than 800 µM. Moreover, the result in data set [2] was inactive.

Consider `CC(=O)c1ccc2c(c1)c(N(Cc1ccccc1)S(=O)(=O)c1ccc(C)cc1)cc1ccccc12`, for which the 50% cytotoxic concentration (CC50) at 72 h in data set [1] amounted to 382 µM. Further, in data set [2], the result was inactive.

Consider `Cc1ccc(S(=O)(=O)N(C2=CCCc3ccccc32)c2ccccc2)cc1`, for which, in data set [1], the CC50 at 72 h was 1210 µM. Further, the result in data set [2] was inactive.

Turning to `O=S(=O)(c1ccc(Cl)cc1)N(Cc1ccccc1)C1=CCCc2ccccc21`, in data set [1], the CC50 at 72 h is greater than 800 µM. Also, in data set [2], the result was inactive.

As for `COC(=O)c1ccc2c(c1)c(N(Cc1ccccc1)S(=O)(=O)c1ccc(C)cc1)cc1ccccc12`, the CC50 at 72 h in data set [1] is 3670 µM. Besides, in data set [2], the result was inactive.

With `CCCCN(c1cccc2ccccc12)S(=O)(=O)c1ccc(C)cc1`, the CC50 at 72 h in data set [1] was 311 µM. For the same compound, the result in data set [2] was inactive.

`Cc1ccc(S(=O)(=O)N(Cc2ccccc2)c2cc3ccc(C)cc3c3ccccc23)cc1`: in data set [1], the half-maximal cytotoxic concentration (CC50) at 72 h is greater than 800 µM. The outcome in data set [2] was inactive.

On to `Cc1ccc(S(=O)(=O)N(Cc2ccccc2)C2=CCCc3ccccc32)cc1`, for which, in data set [1], the CC50 at 72 h worked out at 1170 µM. For the same compound, the outcome in data set [2] was inactive.

Regarding `Cc1ccc(S(=O)(=O)N(c2ccccc2)c2cccc3ccccc23)cc1`, the CC50 at 72 h in data set [1] came out at 1160 µM. In addition, the outcome in data set [2] was inactive.

For `Cc1ccc(S(=O)(=O)N(Cc2ccccc2)c2cc3ccccc3c3ccc4ccsc4c23)cc1`, the CC50 at 72 h in data set [1] is 1420 µM. Also, the result in data set [2] was inactive.

Regarding `Cc1ccc(S(=O)(=O)N(Cc2ccccc2)c2cc3ccccc3c3cc(Cl)ccc23)cc1`, the CC50 at 72 h in data set [1] turned out to be 2330 µM. The result in data set [2] was inactive.

As to `Cc1ccc(S(=O)(=O)Nc2cc3ccccc3c3cc(C)ccc23)cc1`, the CC50 at 72 h in data set [1] is 227 µM. The result in data set [2] was inactive.

Consider `COc1ccc(S(=O)(=O)N(Cc2ccccc2)c2cccc3ccccc23)cc1`, for which the CC50 at 72 h in data set [1] was greater than 800 µM. The result in data set [2] was inactive.

In the case of `Cc1ccc(S(=O)(=O)N(c2ccccc2)c2cc3ccccc3c3ccccc23)cc1`, in data set [1], the CC50 at 72 h was greater than 800 µM. The outcome in data set [2] was inactive.

For `Cc1ccc(S(=O)(=O)N(C)c2cccc3ccccc23)cc1`, the CC50 at 72 h in data set [1] was greater than 800 µM. The result in data set [2] was inactive.

For `Cc1ccc(S(=O)(=O)N(Cc2ccccc2)c2cccc3ccccc23)cc1`, the CC50 at 72 h in data set [1] was 1370 µM. In data set [2], the result was inactive.

Turning to `C=CCN(c1cccc2ccccc12)S(=O)(=O)c1ccc(C)cc1`, the CC50 at 72 h in data set [1] was 620 µM. Moreover, the outcome in data set [2] was inactive.

`COc1ccc(S(=O)(=O)N(Cc2ccccc2)C2=CCCc3ccccc32)cc1`: the half-maximal cytotoxic concentration (CC50) at 72 h in data set [1] was greater than 800 µM. Also, the result in data set [2] was inactive.

On to `Cc1ccc(S(=O)(=O)N(Cc2ccccc2)c2cc3ccccc3c3cc(C)ccc23)cc1`, for which, in data set [1], the CC50 at 72 h is greater than 800 µM. Besides, in data set [2], the outcome was inactive.

Regarding `CS(=O)(=O)Nc1cc2ccccc2c2ccccc12`, the CC50 at 72 h in data set [1] stood at 73.4 µM. Besides, the outcome in data set [2] was inactive.

In the case of `Cc1ccc(S(=O)(=O)N(C)c2cc3ccccc3c3ccccc23)cc1`, the CC50 at 72 h in data set [1] amounted to 3120 µM. In addition, the result in data set [2] was inactive.

In the case of `O=[N+]([O-])c1ccc(S(=O)(=O)N(Cc2ccccc2)C2=CCCc3ccccc32)cc1`, the CC50 at 72 h in data set [1] is greater than 800 µM. The result in data set [2] was inactive.
